Experimental data reported in US6143719A, “Bradykinin analogs as selective thrombin inhibitors” (The Regents of the University of Michigan, priority 1996, dated 2000).
Ends that are not written are not given here.

Target: T1, thrombin receptor (Homo sapiens, UniProt P25116)
T1 construct: endogenous in cells; host or cells: washed platelets from fresh blood
T1 sequence (P25116 22-425): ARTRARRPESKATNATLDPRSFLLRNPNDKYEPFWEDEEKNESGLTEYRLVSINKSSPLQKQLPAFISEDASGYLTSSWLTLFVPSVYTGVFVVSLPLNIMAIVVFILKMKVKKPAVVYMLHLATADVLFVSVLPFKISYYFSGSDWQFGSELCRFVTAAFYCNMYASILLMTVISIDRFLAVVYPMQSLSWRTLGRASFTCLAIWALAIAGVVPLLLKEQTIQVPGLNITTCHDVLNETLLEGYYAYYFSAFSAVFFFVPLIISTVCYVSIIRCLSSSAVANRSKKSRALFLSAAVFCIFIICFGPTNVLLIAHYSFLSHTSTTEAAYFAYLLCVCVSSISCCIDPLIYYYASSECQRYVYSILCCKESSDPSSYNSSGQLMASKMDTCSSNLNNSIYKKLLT
Experiment: flow cytometry of thrombin receptor epitopes (SPAN12, ATAP138) on α-thrombin activated platelets
Type: cell-based
Details: peptide 1 mM, α-thrombin 1 nM
Protocol: Flow cytometry studies were performed to determine whether BK analogs prevent α-thrombin from eliminating an epitope on the thrombin receptor which is lost following α-thrombin cleavage- of the receptor. SPAN12 is an antibody to the thrombin receptor on platelets, which is specific for such an epitope. Studies were also performed to determine the effect of BK analogs on an epitope recognized by monoclonal antibody ATAP 138. The antibody is directed to an epitope on the thrombin receptor which is preserved after α-thrombin cleaves the receptor (FIGS. 7A-7D).
Monoclonal antibody SPAN12 was reared to the 12 amino acids, Asn-Ala-Thr-Leu-Asp-Pro-Arg-Ser-Phe-Leu-Leu-Arg (SEQ ID NO:2), that bridge the α-thrombin cleavage site on the thrombin receptor by the methods of Molinot et al., J. Biol. Chem. 270:ln Press, 1995. […]
Mouse IgG and an antibody to the epitope CD62 were used as controls. […] The fluorescence of bound FITC-anti-IgG to platelets was monitored on an Epics-C flow cytometer (Coulter Electronics, Hialeah, Fla.). Light scatter and fluorescence channels were set at logarithmic gain. […] Green fluorescence was observed through a 525 nm band pass filter. The relative fluorescence intensity of at least 15,000 platelets was analyzed in each sample. […]

RPPGFSPFR [BK, bradykinin] was tested, and the “loss of SPAN12 epitope of thrombin receptor on α-thrombin activated platelets” value was “prevents the loss of the epitope”.
